Usually GI50 stands for the concentration that inhibits growth by half. By TGI is commonly meant the concentration at which net growth stops. Read a high TGI as lower sensitivity of the cells.

GI50 and TGI data for 13 molecules are collected here from PubChem BioAssay (NCI).

“And” between values parts separate entries of the source, which are not always exact repeats. Identical values can stand only once.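 Grown in 96-well plates, cells were treated for 48 hours with each compound at five concentrations. Insufficient inhibition: endpoint recorded as highest concentration tested. GI50 = concentration required for 50% inhibition of growth. TGI marks complete inhibition of growth.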

Among the test systems are 786-0 renal; A549 NSCLC; ACHN renal; COLO 205 colon; HS 578T breast; IGROV1 ovarian; K-562 leukemia; NCI-H226 lung; RXF 393 renal; SK-MEL-5 melanoma.
What all share (experiment): DTP human tumour cell line panel, 48 h

Turning to `CC(=O)N1c2ccc(-c3ccc(C(=O)O)cc3)cc2[C@H](Nc2ccc(Cl)cc2)C[C@@H]1C`, the GI50 is 0.125 µM in the experiment with 786-0 renal; 1.23 µM in the experiment with A549 NSCLC; 0.41 µM with ACHN renal; 0.0615 µM with COLO 205 colon; 0.0549 µM with HS 578T breast; 0.531 µM with IGROV1 ovarian. Also, the GI50 in the experiment with K-562 leukemia was 0.168 µM; in the experiment with NCI-H226 lung, 1.71 µM; with RXF 393 renal, 5.41 µM; in the experiment with SK-MEL-5 melanoma, 0.357 µM. Also, the TGI was 40.2 µM in the experiment with 786-0 renal; 28.1 µM in the experiment on A549 NSCLC; 21.9 µM in the experiment on ACHN renal; 12.8 µM in the experiment on COLO 205 colon; more than 57.9 µM with HS 578T breast; 64.9 µM in the experiment with IGROV1 ovarian. Further, the TGI with K-562 leukemia was more than 55.2 µM; in the experiment on NCI-H226 lung it was 19.9 µM; in the experiment on RXF 393 renal it was 40.9 µM; in the experiment with SK-MEL-5 melanoma, 12.6 µM.
As for `O=[N+]([O-])c1ccc2nc(=S)[nH]n2c1`, the TGI with 786-0 renal, in the experiment with A549 NSCLC, with ACHN renal, in the experiment with COLO 205 colon, in the experiment on HS 578T breast and in the experiment on IGROV1 ovarian was more than 100 µM each time. Moreover, the TGI with K-562 leukemia, in the experiment with NCI-H226 lung, in the experiment with RXF 393 renal and with SK-MEL-5 melanoma was more than 100 µM throughout.
With `CC(=O)Nc1cc(CN2CCCCC2)c(O)c2ncccc12`, the TGI with 786-0 renal was 40.9 µM; with A549 NSCLC it was more than 100 µM; with ACHN renal it was 72.2 µM; with COLO 205 colon, more than 100 µM; with HS 578T breast, more than 100 µM; with IGROV1 ovarian it was more than 100 µM. For the same molecule, the TGI with K-562 leukemia was more than 100 µM; in the experiment with NCI-H226 lung, 86.1 µM; in the experiment on RXF 393 renal, more than 100 µM; with SK-MEL-5 melanoma, more than 100 µM.
In the case of `COc1ccc2c(c1)NC(=O)CN2c1nc(C)nc2ccccc12`, the GI50 in the experiment with 786-0 renal is 0.00346 µM; in the experiment with A549 NSCLC, 0.000588 µM; with ACHN renal it was 0.000926 µM; with COLO 205 colon, 0.000322 µM; in the experiment on HS 578T breast, 0.000601 µM; with IGROV1 ovarian, 0.000829 µM. Also, the GI50 in the experiment on K-562 leukemia was 0.000359 µM; in the experiment on SK-MEL-5 melanoma, 0.0004 µM. The TGI in the experiment on 786-0 renal was more than 100 µM; with A549 NSCLC, more than 100 µM; in the experiment on ACHN renal it was more than 100 µM; with COLO 205 colon, 0.0012 µM; in the experiment with HS 578T breast, more than 100 µM; in the experiment on IGROV1 ovarian it was 74.9 µM. Besides, the TGI in the experiment with K-562 leukemia was more than 100 µM; with NCI-H226 lung, more than 100 µM; in the experiment on RXF 393 renal it was more than 100 µM; with SK-MEL-5 melanoma, 0.00186 µM.
For `NC(N)=NC(N)=NCc1ccco1`, the GI50 with 786-0 renal was more than 1250 µM; in the experiment with A549 NSCLC it was 340 µM and 325 µM; in the experiment on ACHN renal, more than 1250 µM; in the experiment on COLO 205 colon, more than 1250 µM; with HS 578T breast, more than 1250 µM; with IGROV1 ovarian, 854 µM. Besides, the GI50 was 264 µM in the experiment on K-562 leukemia; more than 1250 µM in the experiment on NCI-H226 lung; more than 1250 µM in the experiment with RXF 393 renal; 363 µM and 119 µM in the experiment on SK-MEL-5 melanoma. The TGI in the experiment with 786-0 renal, in the experiment with A549 NSCLC, with ACHN renal, with COLO 205 colon, in the experiment on HS 578T breast and in the experiment on IGROV1 ovarian was more than 1250 µM in each case. The TGI in the experiment with K-562 leukemia, in the experiment on NCI-H226 lung, with RXF 393 renal and in the experiment with SK-MEL-5 melanoma was more than 1250 µM in each case.
`CC1CC2(C)CC(=O)C1C1C(=O)N(CCN3CCOCC3)C(=O)C12` (stereo not given): the GI50 with 786-0 renal, in the experiment on A549 NSCLC, in the experiment on ACHN renal, in the experiment on COLO 205 colon, with HS 578T breast and in the experiment on IGROV1 ovarian was more than 100 µM throughout. Also, the GI50 with K-562 leukemia, with NCI-H226 lung, in the experiment with RXF 393 renal and in the experiment on SK-MEL-5 melanoma was more than 100 µM in each case. Further, the TGI with 786-0 renal, in the experiment with A549 NSCLC, with ACHN renal, with COLO 205 colon, in the experiment with HS 578T breast and in the experiment on IGROV1 ovarian was more than 100 µM throughout. For the same molecule, the TGI in the experiment with K-562 leukemia, in the experiment on NCI-H226 lung, in the experiment with RXF 393 renal and in the experiment on SK-MEL-5 melanoma was more than 100 µM each time.
Regarding `COc1ccc(-c2cc(=O)c3cccnc3[nH]2)cc1`, the GI50 in the experiment with 786-0 renal was 56.5 µM; in the experiment with SK-MEL-5 melanoma it was 35 µM. The TGI with 786-0 renal was more than 100 µM; in the experiment with A549 NSCLC, more than 100 µM; in the experiment with ACHN renal, more than 100 µM; with COLO 205 colon, 52.5 µM; with HS 578T breast it was more than 100 µM; with IGROV1 ovarian, more than 100 µM. In addition, the TGI with K-562 leukemia was 88.6 µM; in the experiment with NCI-H226 lung, more than 100 µM; with RXF 393 renal it was more than 100 µM; in the experiment with SK-MEL-5 melanoma, more than 100 µM.
In the case of `COC(=O)CCc1c(/C=C2\N=C(c3ccc[nH]3)C=C2OC)[nH]c(C)c1C(=O)OCc1ccccc1`, the GI50 in the experiment on 786-0 renal is 0.159 µM; in the experiment on A549 NSCLC, 0.945 µM; with ACHN renal, 0.297 µM; in the experiment on COLO 205 colon it was 0.341 µM; in the experiment on HS 578T breast, 0.491 µM; in the experiment on IGROV1 ovarian, 0.355 µM. Besides, the GI50 in the experiment on K-562 leukemia is 0.252 µM; in the experiment on NCI-H226 lung, 0.532 µM; in the experiment with RXF 393 renal, 0.549 µM; in the experiment on SK-MEL-5 melanoma, 0.47 µM. Also, the TGI in the experiment on 786-0 renal was determined as 1.3 µM; with A549 NSCLC, 38.7 µM; in the experiment with ACHN renal, 1.1 µM; in the experiment on COLO 205 colon it was 2.03 µM; in the experiment on HS 578T breast, 3.78 µM; in the experiment on IGROV1 ovarian, 2.41 µM. The TGI stood at 3.39 µM with K-562 leukemia, 4.75 µM in the experiment on NCI-H226 lung, 3.38 µM in the experiment on RXF 393 renal and 1.75 µM in the experiment on SK-MEL-5 melanoma.
Regarding `COc1ccc(-c2cc3c(N)ncnc3o2)cc1`, the GI50 in the experiment on 786-0 renal is more than 25 µM; in the experiment with A549 NSCLC, more than 25 µM; with ACHN renal, more than 25 µM; in the experiment on COLO 205 colon, more than 25 µM; in the experiment with HS 578T breast it was 5.85 µM; in the experiment with IGROV1 ovarian, 24.3 µM. For the same molecule, the GI50 with K-562 leukemia was more than 25 µM; in the experiment on NCI-H226 lung, more than 25 µM; in the experiment with RXF 393 renal, more than 25 µM; in the experiment on SK-MEL-5 melanoma, more than 22.4 µM. For the same molecule, the total growth inhibition concentration (TGI) with 786-0 renal, in the experiment on A549 NSCLC, in the experiment on ACHN renal, in the experiment on COLO 205 colon, with HS 578T breast and in the experiment on IGROV1 ovarian was more than 25 µM each time. Moreover, the TGI in the experiment on K-562 leukemia, in the experiment on NCI-H226 lung, in the experiment on RXF 393 renal and in the experiment on SK-MEL-5 melanoma was more than 25 µM throughout.
With `CCCCCCCCC(=O)NCCN(CCN)C(=O)CCCCCCCC`, the TGI in the experiment with 786-0 renal came to 12.4 µM; in the experiment on A549 NSCLC, 29.9 µM; in the experiment on ACHN renal, 19.2 µM; with COLO 205 colon it was 6.72 µM; in the experiment on HS 578T breast, 24 µM; in the experiment on IGROV1 ovarian, 19.5 µM. In addition, the TGI in the experiment on K-562 leukemia is 8.27 µM; in the experiment with NCI-H226 lung, 37.1 µM; in the experiment with RXF 393 renal, 34.1 µM; with SK-MEL-5 melanoma it was 26.4 µM.
As to `CC(C)CC1NC(=O)C(C(C)C)NC(=O)CC(C)COC(=O)C(CC(C)C)N(C)C(=O)C(C(C)C)NC(=O)C(C(C)C)OC1=O` (stereo not given), the TGI in the experiment with 786-0 renal, in the experiment on A549 NSCLC, in the experiment on ACHN renal, with COLO 205 colon, with HS 578T breast and with IGROV1 ovarian was more than 50 µM each time. For the same molecule, the total growth inhibition concentration (TGI) is more than 50 µM in the experiment on K-562 leukemia, more than 50 µM with NCI-H226 lung, 35.2 µM in the experiment on RXF 393 renal and more than 50 µM in the experiment on SK-MEL-5 melanoma.
Consider `COc1ccc(CNC(=O)c2c(C)n([O-])c3cc(F)c(F)cc3[n+]2=O)cc1`, for which the GI50 in the experiment with 786-0 renal is 16.9 µM; with A549 NSCLC, 17.6 µM; with ACHN renal, 16.9 µM; in the experiment on COLO 205 colon, 11.2 µM; in the experiment with HS 578T breast it was 2.11 µM; in the experiment on IGROV1 ovarian, 1.9 µM. The GI50 was 1.93 µM with K-562 leukemia, 16.5 µM with NCI-H226 lung, 8.2 µM in the experiment with RXF 393 renal and 12.7 µM in the experiment with SK-MEL-5 melanoma. For the same molecule, the TGI is 30.6 µM with 786-0 renal; 36.8 µM in the experiment with A549 NSCLC; 30.6 µM with ACHN renal; 24.3 µM in the experiment with COLO 205 colon; 5.96 µM in the experiment with HS 578T breast; 3.84 µM in the experiment on IGROV1 ovarian. For the same molecule, the TGI is 4.05 µM in the experiment on K-562 leukemia, 41 µM in the experiment with NCI-H226 lung, 23.4 µM with RXF 393 renal and 25.3 µM in the experiment on SK-MEL-5 melanoma.
Regarding `CC1SC(c2cccc(Cl)c2)N(NC(=O)C(O)c2ccccc2)C1=O` (stereo not given), the GI50 was more than 100 µM in the experiment with 786-0 renal; 86.7 µM in the experiment on A549 NSCLC; more than 100 µM with ACHN renal; more than 100 µM in the experiment with COLO 205 colon; more than 100 µM in the experiment with HS 578T breast; 68.7 µM in the experiment on IGROV1 ovarian. The GI50 in the experiment on K-562 leukemia was 69.4 µM; in the experiment on NCI-H226 lung, more than 100 µM; in the experiment with RXF 393 renal, 80.6 µM; in the experiment on SK-MEL-5 melanoma, more than 100 µM. Moreover, the TGI in the experiment on 786-0 renal, in the experiment on A549 NSCLC, in the experiment on ACHN renal, in the experiment on COLO 205 colon, in the experiment with HS 578T breast and with IGROV1 ovarian was more than 100 µM in each case. Moreover, the TGI in the experiment on K-562 leukemia, with NCI-H226 lung, in the experiment with RXF 393 renal and in the experiment on SK-MEL-5 melanoma was more than 100 µM throughout.
